Laboratory results: PMC11345841, “Exploring 2-Sulfonylpyrimidine Warheads as Acrylamide Surrogates for Targeted Covalent Inhibition: A BTK Story” (Journal of Medicinal Chemistry, 2024)
Where two headings read alike, the source gives them in different places.

What was measured:
Assay in all cases: KINOMEscan ScanTK
Assay type in all cases: binding
[1] = target: T1, JAK2(JH1domain-catalytic) (Homo sapiens, UniProt O60674)
T1 construct: JAK2(JH1domain-catalytic); purchased Eurofins DiscoverX KINOMEscan (scanTK)

KIT-autoinhibited = target: T2, KIT-autoinhibited (Homo sapiens, UniProt P10721)
T2 construct: purchased Eurofins DiscoverX KINOMEscan (scanTK)

KIT(D816V) = target: T3, KIT(D816V) (Homo sapiens, UniProt P10721, D816V)
T3 construct: purchased Eurofins DiscoverX KINOMEscan (scanTK)

[2] = target: T4, ABL1(F317I)-phosphorylated (Homo sapiens, UniProt P00519, F317I)
T4 construct: purchased Eurofins DiscoverX KINOMEscan (scanTK)

PDGFRB = target: T5, PDGFRB (Homo sapiens, UniProt P09619)
T5 construct: purchased Eurofins DiscoverX KINOMEscan (scanTK)

FAK = target: T6, FAK (Homo sapiens, UniProt Q05397)
T6 construct: purchased Eurofins DiscoverX KINOMEscan (scanTK)

ITK = target: T7, ITK (Homo sapiens, UniProt Q08881); settings: for remaining binding at 1 µM: ITK
T7 construct: purchased Eurofins DiscoverX KINOMEscan (scanTK)
T7 sequence (Q08881 1-620): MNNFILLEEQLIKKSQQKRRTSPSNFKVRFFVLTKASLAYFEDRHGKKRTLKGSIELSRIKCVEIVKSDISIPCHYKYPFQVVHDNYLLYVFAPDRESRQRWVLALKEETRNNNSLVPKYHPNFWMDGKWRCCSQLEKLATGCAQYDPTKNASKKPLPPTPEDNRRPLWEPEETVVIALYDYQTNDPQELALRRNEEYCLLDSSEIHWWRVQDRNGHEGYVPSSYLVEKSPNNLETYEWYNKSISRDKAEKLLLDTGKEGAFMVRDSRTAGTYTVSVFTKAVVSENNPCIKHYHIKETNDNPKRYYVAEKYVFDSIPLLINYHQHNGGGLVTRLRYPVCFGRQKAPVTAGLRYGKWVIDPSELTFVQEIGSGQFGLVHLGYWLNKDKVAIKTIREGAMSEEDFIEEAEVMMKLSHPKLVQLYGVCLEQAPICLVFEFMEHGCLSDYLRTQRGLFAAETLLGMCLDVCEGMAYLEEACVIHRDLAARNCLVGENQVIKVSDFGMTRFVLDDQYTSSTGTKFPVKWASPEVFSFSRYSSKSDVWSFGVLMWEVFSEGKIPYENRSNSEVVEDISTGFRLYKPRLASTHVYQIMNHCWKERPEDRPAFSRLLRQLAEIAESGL

SYK = target: T8, SYK (Homo sapiens, UniProt P43405)
T8 construct: purchased Eurofins DiscoverX KINOMEscan (scanTK)

[3] = target: T9, ABL1(T315I)-nonphosphorylated (Homo sapiens, UniProt P00519, T315I)
T9 construct: purchased Eurofins DiscoverX KINOMEscan (scanTK)

KIT(L576P) = target: T10, KIT(L576P) (Homo sapiens, UniProt P10721, L576P)
T10 construct: purchased Eurofins DiscoverX KINOMEscan (scanTK)

SRMS = target: T11, SRMS (Homo sapiens, UniProt Q9H3Y6); settings: for remaining binding at 1 µM: SRMS
T11 construct: purchased Eurofins DiscoverX KINOMEscan (scanTK)

[4] = target: T12, JAK1(JH2domain-pseudokinase) (Homo sapiens, UniProt P23458)
T12 construct: JAK1(JH2domain-pseudokinase); purchased Eurofins DiscoverX KINOMEscan (scanTK)

[5] = target: T13, JAK1(JH1domain-catalytic) (Homo sapiens, UniProt P23458)
T13 construct: JAK1(JH1domain-catalytic); purchased Eurofins DiscoverX KINOMEscan (scanTK)
T13 sequence (P23458 875-1154 limits assumed): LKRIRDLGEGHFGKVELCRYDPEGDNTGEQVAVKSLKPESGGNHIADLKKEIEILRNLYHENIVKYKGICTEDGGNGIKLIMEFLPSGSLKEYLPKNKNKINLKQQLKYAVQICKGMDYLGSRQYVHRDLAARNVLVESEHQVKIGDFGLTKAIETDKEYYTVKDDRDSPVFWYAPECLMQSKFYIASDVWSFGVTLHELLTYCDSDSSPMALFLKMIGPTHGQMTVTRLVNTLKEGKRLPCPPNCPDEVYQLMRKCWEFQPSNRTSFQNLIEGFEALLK

T11 sequence (Q9H3Y6 whole entry): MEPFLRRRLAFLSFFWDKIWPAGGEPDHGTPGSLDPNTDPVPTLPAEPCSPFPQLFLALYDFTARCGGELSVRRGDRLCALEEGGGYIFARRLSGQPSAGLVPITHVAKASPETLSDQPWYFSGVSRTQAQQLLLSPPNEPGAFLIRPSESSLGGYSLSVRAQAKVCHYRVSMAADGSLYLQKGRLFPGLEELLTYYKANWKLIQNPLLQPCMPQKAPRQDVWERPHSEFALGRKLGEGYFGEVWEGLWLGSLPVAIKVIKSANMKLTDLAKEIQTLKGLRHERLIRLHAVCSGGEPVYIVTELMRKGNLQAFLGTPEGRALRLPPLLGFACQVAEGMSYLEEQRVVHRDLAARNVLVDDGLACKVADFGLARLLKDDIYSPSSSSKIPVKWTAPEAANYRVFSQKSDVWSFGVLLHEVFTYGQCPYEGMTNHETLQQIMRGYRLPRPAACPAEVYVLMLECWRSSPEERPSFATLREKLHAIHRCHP
T2 sequence (P10721 26-976): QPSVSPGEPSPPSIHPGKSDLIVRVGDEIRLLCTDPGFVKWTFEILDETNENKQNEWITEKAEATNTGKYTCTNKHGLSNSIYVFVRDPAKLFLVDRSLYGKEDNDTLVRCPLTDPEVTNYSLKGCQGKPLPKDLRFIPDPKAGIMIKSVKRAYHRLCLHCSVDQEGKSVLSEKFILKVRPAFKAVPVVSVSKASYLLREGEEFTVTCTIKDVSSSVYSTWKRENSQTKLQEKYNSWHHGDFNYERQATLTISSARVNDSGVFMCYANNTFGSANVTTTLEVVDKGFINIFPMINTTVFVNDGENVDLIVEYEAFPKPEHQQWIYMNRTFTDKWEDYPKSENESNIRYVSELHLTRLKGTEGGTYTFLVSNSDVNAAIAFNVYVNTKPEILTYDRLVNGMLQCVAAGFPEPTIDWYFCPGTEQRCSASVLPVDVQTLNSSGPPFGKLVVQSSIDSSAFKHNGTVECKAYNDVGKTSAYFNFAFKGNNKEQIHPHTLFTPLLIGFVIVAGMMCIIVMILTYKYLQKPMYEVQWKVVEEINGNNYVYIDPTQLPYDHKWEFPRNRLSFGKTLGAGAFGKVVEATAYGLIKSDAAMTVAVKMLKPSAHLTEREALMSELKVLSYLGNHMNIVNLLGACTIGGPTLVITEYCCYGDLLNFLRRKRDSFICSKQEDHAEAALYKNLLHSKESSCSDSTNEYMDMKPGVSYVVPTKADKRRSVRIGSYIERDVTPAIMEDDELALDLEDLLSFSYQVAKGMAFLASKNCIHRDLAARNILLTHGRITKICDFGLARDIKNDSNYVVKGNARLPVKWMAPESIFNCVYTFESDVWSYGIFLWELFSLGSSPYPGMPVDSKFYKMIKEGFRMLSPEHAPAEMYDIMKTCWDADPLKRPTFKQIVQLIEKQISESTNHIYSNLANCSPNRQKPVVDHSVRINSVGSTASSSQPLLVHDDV
T5 sequence (P09619 33-1106): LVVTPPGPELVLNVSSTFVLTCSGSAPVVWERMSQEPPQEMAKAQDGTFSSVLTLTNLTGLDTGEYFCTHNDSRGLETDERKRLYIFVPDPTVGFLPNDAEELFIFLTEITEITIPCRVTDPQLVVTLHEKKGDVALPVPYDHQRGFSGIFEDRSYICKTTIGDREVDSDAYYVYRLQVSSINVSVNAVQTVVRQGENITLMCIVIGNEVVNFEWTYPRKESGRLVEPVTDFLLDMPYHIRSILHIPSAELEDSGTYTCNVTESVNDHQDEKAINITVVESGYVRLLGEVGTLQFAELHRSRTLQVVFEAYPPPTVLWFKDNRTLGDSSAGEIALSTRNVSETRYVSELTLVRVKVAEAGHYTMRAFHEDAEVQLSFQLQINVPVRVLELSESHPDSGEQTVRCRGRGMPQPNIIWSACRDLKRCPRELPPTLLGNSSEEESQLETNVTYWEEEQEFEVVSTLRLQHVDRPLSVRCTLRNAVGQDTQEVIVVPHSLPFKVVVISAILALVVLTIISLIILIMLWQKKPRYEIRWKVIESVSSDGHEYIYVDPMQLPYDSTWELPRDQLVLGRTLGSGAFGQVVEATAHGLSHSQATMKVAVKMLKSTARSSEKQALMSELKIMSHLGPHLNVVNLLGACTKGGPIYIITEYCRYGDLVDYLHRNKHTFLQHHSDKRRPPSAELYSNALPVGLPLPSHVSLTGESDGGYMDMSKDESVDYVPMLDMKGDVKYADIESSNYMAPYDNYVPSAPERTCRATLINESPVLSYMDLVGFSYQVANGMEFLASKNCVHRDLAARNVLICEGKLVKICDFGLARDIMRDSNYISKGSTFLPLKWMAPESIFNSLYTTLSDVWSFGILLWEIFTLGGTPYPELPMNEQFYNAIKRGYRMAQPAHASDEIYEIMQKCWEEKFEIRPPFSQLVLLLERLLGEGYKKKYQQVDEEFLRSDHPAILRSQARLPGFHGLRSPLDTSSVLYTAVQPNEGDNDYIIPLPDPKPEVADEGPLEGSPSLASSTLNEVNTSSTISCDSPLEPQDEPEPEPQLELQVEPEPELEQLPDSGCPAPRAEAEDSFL
T3 sequence (P10721 26-976 D816V): as the sequence (P10721 26-976) above, with D791V counted along it
T10 sequence (P10721 26-976 L576P): as the sequence (P10721 26-976) above, with L551P counted along it
T12 sequence (P23458 583-855 limits assumed): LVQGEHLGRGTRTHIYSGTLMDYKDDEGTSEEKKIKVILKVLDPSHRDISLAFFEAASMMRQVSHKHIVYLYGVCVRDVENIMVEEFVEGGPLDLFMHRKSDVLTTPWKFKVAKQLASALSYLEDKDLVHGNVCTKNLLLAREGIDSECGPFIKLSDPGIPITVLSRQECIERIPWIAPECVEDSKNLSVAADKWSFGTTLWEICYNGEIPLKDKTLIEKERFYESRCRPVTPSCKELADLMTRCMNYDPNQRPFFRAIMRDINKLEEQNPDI
T6 sequence (Q05397 whole entry): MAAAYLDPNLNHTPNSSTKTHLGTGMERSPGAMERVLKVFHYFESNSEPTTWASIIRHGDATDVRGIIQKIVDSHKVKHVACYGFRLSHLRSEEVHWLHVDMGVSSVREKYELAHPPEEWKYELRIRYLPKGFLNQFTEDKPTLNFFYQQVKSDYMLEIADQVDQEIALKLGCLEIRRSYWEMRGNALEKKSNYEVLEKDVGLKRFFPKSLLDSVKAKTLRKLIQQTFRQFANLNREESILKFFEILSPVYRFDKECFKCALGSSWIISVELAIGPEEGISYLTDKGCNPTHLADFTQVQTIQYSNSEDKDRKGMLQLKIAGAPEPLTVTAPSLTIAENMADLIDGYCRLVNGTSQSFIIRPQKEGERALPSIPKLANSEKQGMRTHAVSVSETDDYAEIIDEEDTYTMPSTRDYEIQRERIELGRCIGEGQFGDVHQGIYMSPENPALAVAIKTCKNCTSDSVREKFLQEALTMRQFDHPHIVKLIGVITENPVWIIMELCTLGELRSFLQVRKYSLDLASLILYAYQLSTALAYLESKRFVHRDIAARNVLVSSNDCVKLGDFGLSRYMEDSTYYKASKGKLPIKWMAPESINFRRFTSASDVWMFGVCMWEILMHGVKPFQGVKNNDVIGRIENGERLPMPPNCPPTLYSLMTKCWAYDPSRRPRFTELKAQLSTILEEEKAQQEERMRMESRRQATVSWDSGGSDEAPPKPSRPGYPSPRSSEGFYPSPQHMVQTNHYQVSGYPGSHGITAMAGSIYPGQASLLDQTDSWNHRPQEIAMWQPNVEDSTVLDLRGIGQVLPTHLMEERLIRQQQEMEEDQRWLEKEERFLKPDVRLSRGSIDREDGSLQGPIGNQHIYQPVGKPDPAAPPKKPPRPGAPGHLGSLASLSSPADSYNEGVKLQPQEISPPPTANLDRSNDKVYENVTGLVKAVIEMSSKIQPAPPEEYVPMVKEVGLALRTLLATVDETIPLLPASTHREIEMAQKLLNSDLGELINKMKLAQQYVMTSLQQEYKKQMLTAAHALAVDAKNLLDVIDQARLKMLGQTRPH
T1 sequence (O60674 849-1132 limits assumed): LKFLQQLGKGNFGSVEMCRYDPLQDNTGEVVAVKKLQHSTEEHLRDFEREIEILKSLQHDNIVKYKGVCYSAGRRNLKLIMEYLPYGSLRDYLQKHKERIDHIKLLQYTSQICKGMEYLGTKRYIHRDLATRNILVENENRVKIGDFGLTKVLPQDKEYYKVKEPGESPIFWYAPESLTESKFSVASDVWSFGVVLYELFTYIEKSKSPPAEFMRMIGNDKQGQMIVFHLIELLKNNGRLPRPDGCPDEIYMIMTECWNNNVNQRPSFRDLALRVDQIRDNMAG

For `C=CC(=O)N1CCC[C@@H](n2nc(-c3ccc(Oc4ccccc4)cc3)c3c(N)ncnc32)C1` [Compound 1g, Ibrutinib, reference compound], the remaining binding at 1 µM ([1]; @1000nM, read-out: %Control) was 100%, the remaining binding at 1 µM ([1]; read-out: %Control @1000nM) was 100% and the remaining binding at 1 µM (KIT-autoinhibited; @1000nM, read-out: %Control) was 88%. For the same molecule, the remaining binding at 1 µM (KIT-autoinhibited; read-out: %Control @1000nM) was 88%, the remaining binding at 1 µM (KIT(D816V); @1000nM, read-out: %Control) was 86% and the remaining binding at 1 µM (KIT(D816V); read-out: %Control @1000nM) was 86%. The remaining binding at 1 µM ([2]; @1000nM, read-out: %Control) was 73%, the remaining binding at 1 µM ([2]; read-out: %Control @1000nM) was 73% and the remaining binding at 1 µM (PDGFRB; @1000nM, read-out: %Control) was 25%. It also gave a remaining binding at 1 µM (PDGFRB; read-out: %Control @1000nM) of 25%, a remaining binding at 1 µM (FAK; @1000nM, read-out: %Control) of 100% and a remaining binding at 1 µM (FAK; read-out: %Control @1000nM) of 100%. For the same molecule, the remaining binding at 1 µM (ITK; @1000nM, read-out: %Control) was 15%, the remaining binding at 1 µM (ITK; read-out: %Control @1000nM) was 15% and the inhibition at 1 µM (ITK; ScanTK, 1 μM) was 85%. The remaining binding at 1 µM (SYK; @1000nM, read-out: %Control) was 91%, the remaining binding at 1 µM (SYK; read-out: %Control @1000nM) was 91% and the remaining binding at 1 µM ([3]; @1000nM, read-out: %Control) was 93%. The remaining binding at 1 µM ([3]; read-out: %Control @1000nM) was 93%, the remaining binding at 1 µM (KIT(L576P); @1000nM, read-out: %Control) was 32% and the remaining binding at 1 µM (KIT(L576P); read-out: %Control @1000nM) was 32%. It also gave a remaining binding at 1 µM (SRMS; @1000nM, read-out: %Control) of 0%, a remaining binding at 1 µM (SRMS; read-out: %Control @1000nM) of 0% and an inhibition at 1 µM (SRMS; read-out: % inhibition, SRMS) greater than 99%. The remaining binding at 1 µM ([4]; @1000nM, read-out: %Control) was 95%, the remaining binding at 1 µM ([4]; read-out: %Control @1000nM) was 95% and the remaining binding at 1 µM ([5]; @1000nM, read-out: %Control) was 94%. The remaining binding at 1 µM ([5]; read-out: %Control @1000nM) was 94%.
